# PMC8041751, “Structural basis for an exceptionally strong preference for asparagine residue at the S2 subsite of Stenotrophomonas maltophilia dipeptidyl peptidase 7” (Scientific Reports, 2021)
# Residues, ends and D or L forms follow the SMILES beside them.
# Assays:
# PgDPP11 = PgDPP11 (Porphyromonas gingivalis, UniProt B2RID1); test: biochemical
# Method: Figure 2 Correlation diagrams between the hydrophobicity index (H.I.) of P2-amino acid and residual DPP activities of S46 peptidases. (a) SmDPP7. The outlier dipeptides Asn-Tyr and Trp-Tyr are coloured in red and blue, respectively (see text). (b) PgDPP7. Tyr-Tyr-MCA hydrolysis of PgDPP7 was inhibited by Xaa-Tyr dipeptide. Residual activity was measured under conditions where 200 µM dipeptides and 200 µM Tyr-Tyr-MCA were added into the reaction solution. (c) DPP11 from S. maltophilia (SmDPP11). (d) PgDPP11. For DPP11s, Leu-Asp-MCA hydrolysis was inhibited by Xaa-Asp dipeptide. Residual activity was measured under conditions where 100 µM dipeptides and 100 µM Leu-Asp-MCA were added into the reaction solution. The hydrophobicity indices of the amino acids were adopted from Sereda et al., 1994 and Mohera et al. 1995[25],[26]. R is the correlation coefficient. The standard deviations were obtained from three independent experiments.
# (§1) The dipeptide library was purchased from AnaSpec (Fremont, CA, US). Ile-Tyr and Arg-Tyr were synthesized by Eurofins Genomics (Tokyo, Japan). Cys-Tyr and Cys-Asp could not be purchased commercially. Different concentrations (3.13, 6.25, 12.5, 25, 50, 100, and 200 µM) of dipeptides as the inhibitor and 200 µM Tyr-Tyr-MCA (GenScript, NJ, US) as the substrate for DPP7 were added into a reaction buffer consisting of 50 mM sodium phosphate buffer pH 7.0, 5 mM EDTA and 0.005% Tween 20. For DPP11s, different concentrations (1.56, 3.13, 6.25, 12.5, 25, 50, and 100 µM) of dipeptides as the inhibitor and 100 µM Leu-Asp-MCA (Peptide Institute, Osaka, Japan) as the substrate were used. The enzyme reaction was performed at 298 K for 20 min and standard deviations were calculated from three independent experiments. Half-maximal inhibitory concentration (IC50) values were determined by fitting to a sigmoid curve (4-parameter logistic curve) using ImageJ software[35] and inhibition constants (Ki) were calculated using the Cheng-Prusoff Equation[36]. The fluorescence intensity of the released MCA was measured with the same method of determination of kinetics parameters toward dipeptidyl MCA.
# [1] = of the amino acid; ref 25,26 (Sereda et al. and Mohera et al.); cited from earlier work
# SmDPP7 = test: Inhibition assay using dipeptide library, Tyr-Tyr-MCA hydrolysis; assay type: biochemical, Stenotrophomonas maltophilia; details: Xaa-Tyr as competitive inhibitor; substrate 200 µM Tyr-Tyr-MCA; pH 7.0, 298 K; Ki from IC50 by Cheng-Prusoff
# Method: Figure 1 Effect of Xaa-Tyr dipeptides on the hydrolytic activity of SmDPP7 towards synthetic substrate Tyr-Tyr-MCA. Inhibition assay was performed as described in “Materials and methods”. Residual activity was measured under conditions where 200 µM Xaa-Tyr dipeptide and 200 µM Tyr-Tyr-MCA, synthetic substrate were added into the reaction solution. […] The standard deviations were obtained from three independent experiments.
# as §1
# wild-type SmDPP7 = test: Kinetic parameters toward dipeptidyl MCA; assay type: biochemical, Stenotrophomonas maltophilia; details: pH 7.0, 298 K
# Method: (§2) Kinetic parameters were determined by fitting the experimental data to the Michaelis–Menten equation using Excel Solver (Microsoft, WA, US) by nonlinear least-squares fitting with different concentrations of glycyl-L-tyrosyl-4-methylcoumaryl-7-amide (3.91, 7.81, 15.6, 31.3, 62.5, 125, 250, and 500 µM; Gly-Tyr-MCA; GenScript, NJ, US), L-tyrosyl-L-tyrosyl-4-methylcoumaryl-7-amide (1.56, 3.13, 6.25, 12.5, 25, 50, 100, and 200 µM; Tyr-Tyr-MCA; GenScript, NJ, US), L-asparaginyl-L-tyrosyl-4-methylcoumaryl-7-amide (1.56, 3.13, 6.25, 12.5, 25, 50, 100, and 200 µM; Asn-Tyr-MCA; GenScript, NJ, US), and L-leucinyl-L-asparaginic acid-4-methylcoumaryl-7-amide (0.781, 1.56, 3.13, 6.25, 12.5, 25, 50, and 100 µM; Leu-Asp-MCA; Peptide Institute, Osaka, Japan) as a substrate. The enzyme reaction was performed in a reaction buffer consisting of 50 mM sodium phosphate buffer pH 7.0, 5 mM EDTA, and 0.005% Tween 20 at 298 K for 20 min and standard deviations were calculated from three independent experiments. […] For SmDPP7 (wild-type and mutants), concentrations of the purified enzymes were 10, 2, and 2 nM for the hydrolyses of Gly-Tyr-MCA, Tyr-Tyr-MCA, and Asn-Tyr-MCA, respectively. Concentration of purified PgDPP7 used for determining kinetic parameters of Tyr-Tyr-MCA hydrolysis was 25 nM. For SmDPP11 and PgDPP11, concentrations of the purified enzymes used for determining kinetic parameters of Leu-Asp-MCA hydrolysis were 0.5 nM and 1 nM, respectively. The fluorescence intensity of the released MCA was measured with excitation at 355 nm and emission at 460 nm using an Infinite 200 PRO microplate reader (Tecan, Switzerland).
# SmDPP7 R218A mutant = test: Kinetic parameters toward dipeptidyl MCA; assay type: biochemical, Stenotrophomonas maltophilia; set-up: key: “–” means not determined due to low activity
# Method: (§3) To test the roles of the residues located in the S2 subsite for P2 residue recognition by SmDPP7, we replaced the following residues with alanine and analysed the enzymatic activities of the mutant enzymes on synthetic substrates, Gly-Tyr-MCA, Tyr-Tyr-MCA, and Asn-Tyr-MCA (Table 2). The mutated residues and their estimated roles were: Lys206, Arg218, Thr220, and Phe671 for interaction with the P2 side chain.
# as §2
# SmDPP7 R218Q mutant = test: Kinetic parameters toward dipeptidyl MCA; assay type: biochemical, Stenotrophomonas maltophilia
# SmDPP7 F671A mutant = test: Kinetic parameters toward dipeptidyl MCA; assay type: biochemical, Stenotrophomonas maltophilia
# Method: as §3, §2
# SmDPP7 K206A mutant = test: Kinetic parameters toward dipeptidyl MCA; assay type: biochemical, Stenotrophomonas maltophilia
# Method: as §3, §2
# SmDPP7 R218K mutant = test: Kinetic parameters toward dipeptidyl MCA; assay type: biochemical, Stenotrophomonas maltophilia
# Method: as §3, §2
# SmDPP7 T220A mutant = test: Kinetic parameters toward dipeptidyl MCA; assay type: biochemical, Stenotrophomonas maltophilia
# Method: as §3, §2
# Sequence of PgDPP11 (B2RID1 22-720): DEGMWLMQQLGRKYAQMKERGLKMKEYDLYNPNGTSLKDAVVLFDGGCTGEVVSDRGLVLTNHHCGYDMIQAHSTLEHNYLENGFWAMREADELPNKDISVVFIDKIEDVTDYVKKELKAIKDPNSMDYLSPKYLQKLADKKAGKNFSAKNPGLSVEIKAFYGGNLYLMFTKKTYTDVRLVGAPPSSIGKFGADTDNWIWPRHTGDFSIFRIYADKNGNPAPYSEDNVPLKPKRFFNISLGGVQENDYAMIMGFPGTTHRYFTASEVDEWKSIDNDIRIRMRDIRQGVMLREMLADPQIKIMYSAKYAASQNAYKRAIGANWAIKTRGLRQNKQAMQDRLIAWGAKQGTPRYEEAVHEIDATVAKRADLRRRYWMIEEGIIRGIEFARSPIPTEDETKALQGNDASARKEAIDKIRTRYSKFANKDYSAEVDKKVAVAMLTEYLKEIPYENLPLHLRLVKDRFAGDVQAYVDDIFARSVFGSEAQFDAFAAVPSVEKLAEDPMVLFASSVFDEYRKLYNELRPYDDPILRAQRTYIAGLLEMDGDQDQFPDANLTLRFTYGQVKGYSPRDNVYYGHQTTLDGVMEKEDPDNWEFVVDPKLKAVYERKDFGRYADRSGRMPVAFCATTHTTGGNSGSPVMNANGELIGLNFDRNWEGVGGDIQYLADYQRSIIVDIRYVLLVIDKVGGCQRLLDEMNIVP
compound,measurement,setting,value
C[C@H](N)C(=O)N[C@@H](CC(=O)O)C(=O)O [Ala-Asp] (H-Ala-Asp-OH),Ki,PgDPP11,> 5.11 µM
C[C@H](N)C(=O)O [Ala],H.I. of P2 aa (hydrophobicity index),[1],41
N=C(N)NCCC[C@H](N)C(=O)N[C@@H](CC(=O)O)C(=O)O [Arg-Asp] (H-Arg-Asp-OH),Ki,PgDPP11,> 5.11 µM
NC(=O)C[C@H](N)C(=O)N[C@@H](CC(=O)O)C(=O)O [Asn-Asp] (H-Asn-Asp-OH),Ki,PgDPP11,4.06 ± 0.16 µM
N[C@@H](CC(=O)O)C(=O)N[C@@H](CC(=O)O)C(=O)O [Asp-Asp] (H-Asp-Asp-OH),Ki,PgDPP11,> 5.11 µM
NC(=O)CC[C@H](N)C(=O)N[C@@H](CC(=O)O)C(=O)O [Gln-Asp] (H-Gln-Asp-OH),Ki,PgDPP11,> 5.11 µM
N[C@@H](CCC(=O)O)C(=O)N[C@@H](CC(=O)O)C(=O)O [Glu-Asp] (H-Glu-Asp-OH),Ki,PgDPP11,> 5.11 µM
NCC(=O)N[C@@H](CC(=O)O)C(=O)O [Gly-Asp] (H-Gly-Asp-OH),Ki,PgDPP11,> 5.11 µM
N[C@@H](Cc1c[nH]cn1)C(=O)N[C@@H](CC(=O)O)C(=O)O [His-Asp] (H-His-Asp-OH),Ki,PgDPP11,> 5.11 µM
N[C@@H](Cc1c[nH]cn1)C(=O)O [His],H.I. of P2 aa (hydrophobicity index),[1],8
CC[C@H](C)[C@H](N)C(=O)N[C@@H](CC(=O)O)C(=O)O [Ile-Asp] (H-Ile-Asp-OH),Ki,PgDPP11,> 5.11 µM
CC[C@H](C)[C@H](N)C(=O)O [Ile],H.I. of P2 aa (hydrophobicity index),[1],99
CC(C)C[C@H](N)C(=O)N[C@@H](CC(=O)O)C(=O)O [Leu-Asp] (H-Leu-Asp-OH),Ki,PgDPP11,3.35 ± 0.23 µM
NCCCC[C@H](N)C(=O)N[C@@H](CC(=O)O)C(=O)O [Lys-Asp] (H-Lys-Asp-OH),Ki,PgDPP11,> 5.11 µM
CSCC[C@H](N)C(=O)N[C@@H](CC(=O)O)C(=O)O [Met-Asp] (H-Met-Asp-OH),Ki,PgDPP11,> 5.11 µM
CSCC[C@H](N)C(=O)O [Met],H.I. of P2 aa (hydrophobicity index),[1],74
N[C@@H](Cc1ccccc1)C(=O)N[C@@H](CC(=O)O)C(=O)O [Phe-Asp] (H-Phe-Asp-OH),Ki,PgDPP11,5.11 ± 0.06 µM
N[C@@H](Cc1ccccc1)C(=O)O [Phe],H.I. of P2 aa (hydrophobicity index),[1],100
O=C(O)C[C@H](NC(=O)[C@@H]1CCCN1)C(=O)O [Pro-Asp] (H-Pro-Asp-OH),Ki,PgDPP11,> 5.11 µM
N[C@@H](CO)C(=O)N[C@@H](CC(=O)O)C(=O)O [Ser-Asp] (H-Ser-Asp-OH),Ki,PgDPP11,> 5.11 µM
C[C@@H](O)[C@H](N)C(=O)N[C@@H](CC(=O)O)C(=O)O [Thr-Asp] (H-Thr-Asp-OH),Ki,PgDPP11,> 5.11 µM
N[C@@H](Cc1c[nH]c2ccccc12)C(=O)N[C@@H](CC(=O)O)C(=O)O [Trp-Asp] (H-Trp-Asp-OH),Ki,PgDPP11,1.36 ± 0.06 µM
N[C@@H](Cc1c[nH]c2ccccc12)C(=O)O [Trp],H.I. of P2 aa (hydrophobicity index),[1],97
N[C@@H](Cc1ccc(O)cc1)C(=O)N[C@@H](CC(=O)O)C(=O)O [Tyr-Asp] (H-Tyr-Asp-OH),Ki,PgDPP11,> 5.11 µM
N[C@@H](Cc1ccc(O)cc1)C(=O)O [Tyr],H.I. of P2 aa (hydrophobicity index),[1],63
CC(C)[C@H](N)C(=O)N[C@@H](CC(=O)O)C(=O)O [Val-Asp],Ki,PgDPP11,> 5.11 µM
CC(C)[C@H](N)C(=O)O [Val],H.I. of P2 aa (hydrophobicity index),[1],76
Ala-Tyr,Ki,SmDPP7,> 58 µM
Asp-Tyr,Ki,SmDPP7,> 58 µM
Glu-Tyr,Ki,SmDPP7,> 58 µM
Gly-Tyr,Ki,SmDPP7,> 58 µM
His-Tyr,Ki,SmDPP7,> 58 µM
L-asparaginyl-L-tyrosyl-4-methylcoumaryl-7-amide [Asn-Tyr-MCA],Km,wild-type SmDPP7,51.3 ± 1.6 µM
same,kcat,wild-type SmDPP7,3.67 ± 0.12 s⁻¹
same,Km,SmDPP7 R218A mutant,–
same,kcat,SmDPP7 R218A mutant,–
same,kcat/Km,SmDPP7 R218A mutant,–
same,Km,SmDPP7 R218Q mutant,390 ± 14 µM
same,kcat,SmDPP7 R218Q mutant,0.198 ± 0.006 s⁻¹
same,Km,SmDPP7 F671A mutant,17.4 ± 1.4 µM
same,kcat,SmDPP7 F671A mutant,0.230 ± 0.012 s⁻¹
same,Km,SmDPP7 K206A mutant,54.1 ± 2.1 µM
same,kcat,SmDPP7 K206A mutant,3.47 ± 0.02 s⁻¹
same,Km,SmDPP7 R218K mutant,277 ± 6 µM
same,kcat,SmDPP7 R218K mutant,0.183 ± 0.008 s⁻¹
same,Km,SmDPP7 T220A mutant,66.6 ± 1.5 µM
same,kcat,SmDPP7 T220A mutant,2.60 ± 0.04 s⁻¹
L-tyrosyl-L-tyrosyl-4-methylcoumaryl-7-amide [Tyr-Tyr-MCA],Km,wild-type SmDPP7,81.7 ± 3.4 µM
same,kcat,wild-type SmDPP7,3.83 ± 0.09 s⁻¹
same,Km,SmDPP7 R218A mutant,–
same,kcat,SmDPP7 R218A mutant,–
same,kcat/Km,SmDPP7 R218A mutant,–
same,Km,SmDPP7 R218Q mutant,275 ± 11 µM
same,kcat,SmDPP7 R218Q mutant,0.0403 ± 0.0004 s⁻¹
same,Km,SmDPP7 F671A mutant,463 ± 88 µM
same,kcat,SmDPP7 F671A mutant,1.54 ± 0.18 s⁻¹
same,Km,SmDPP7 K206A mutant,55.8 ± 1.5 µM
same,kcat,SmDPP7 K206A mutant,3.52 ± 0.04 s⁻¹
same,Km,SmDPP7 R218K mutant,251 ± 6 µM
same,kcat,SmDPP7 R218K mutant,0.240 ± 0.003 s⁻¹
same,Km,SmDPP7 T220A mutant,46.4 ± 2.4 µM
same,kcat,SmDPP7 T220A mutant,1.82 ± 0.07 s⁻¹
Pro-Tyr,Ki,SmDPP7,> 58 µM
Ser-Tyr,Ki,SmDPP7,> 58 µM
glycyl-L-tyrosyl-4-methylcoumaryl-7-amide [Gly-Tyr-MCA],Km,wild-type SmDPP7,183 ± 4 µM
same,kcat,wild-type SmDPP7,0.702 ± 0.022 s⁻¹
same,Km,SmDPP7 R218A mutant,–
same,kcat,SmDPP7 R218A mutant,–
same,kcat/Km,SmDPP7 R218A mutant,–
same,Km,SmDPP7 R218Q mutant,717 ± 63 µM
same,kcat,SmDPP7 R218Q mutant,0.0365 ± 0.0018 s⁻¹
same,Km,SmDPP7 F671A mutant,688 ± 38 µM
same,kcat,SmDPP7 F671A mutant,0.191 ± 0.009 s⁻¹
same,Km,SmDPP7 K206A mutant,201 ± 10 µM
same,kcat,SmDPP7 K206A mutant,0.751 ± 0.015 s⁻¹
same,Km,SmDPP7 R218K mutant,586 ± 40 µM
same,kcat,SmDPP7 R218K mutant,0.0238 ± 0.0011 s⁻¹
same,Km,SmDPP7 T220A mutant,215 ± 10 µM
same,kcat,SmDPP7 T220A mutant,0.454 ± 0.010 s⁻¹
